The results in this text go back to patent US7544707B2, “Bicyclic derivatives as PPAR modulators” (Eli Lilly and Company, priority 2003, dated 2009).

The melting point is the temperature, or range, at which the solid turns liquid. As for `CC(C)(Oc1ccc(OCc2cccc3cn(-c4ccc(C(F)(F)F)cc4)nc23)cc1)C(=O)O` [Example 39, 2-Methyl-2-{4-[2-(4-trifluoromethylphenyl)-2H-indazol-7-ylmethoxy]phenoxy}propionic Acid], the melting point was in the range of 178 to 180 °C.
With `CCc1cc(SCCc2cccc3cn(-c4ccc(C(F)(F)F)cc4)nc23)ccc1OCC(=O)O` [Example 45, (2-Ethyl-4-{2-[2-(4-trifluoromethylphenyl)-2H-indazol-7-yl]ethylsulfanyl}phenoxy)acetic Acid] the figure was 115 to 117 °C.
As for `Cc1cc(SCCc2cccc3cn(-c4ccc(C(F)(F)F)cc4)nc23)ccc1OCC(=O)O` [Example 46, (2-Methyl-4-{2-[2-(4-trifluoromethylphenyl)-2H-indazol-7-yl]ethylsulfanyl}phenoxy)acetic Acid], the melting point was 137 to 139 °C.
`CC(C)(Oc1ccc(OCCc2cccc3cn(-c4ccc(C(F)(F)F)cc4)nc23)cc1)C(=O)O` [Example 47, 2-Methyl-2-(4-{2-[2-(4-trifluoromethylphenyl)-2H-indazol-7-yl]ethoxy}phenoxy)propionic Acid] showed a melting point of 122 to 124 °C.
To `Cc1cc(OCCc2cccc3cn(-c4ccc(C(F)(F)F)cc4)nc23)ccc1OC(C)(C)C(=O)O` [Example 48, 2-Methyl-2-(2-methyl-4-{2-[2-(4-trifluoromethylphenyl)-2H-indazol-7-yl]ethoxy}phenoxy)propionic Acid] belongs 133 to 135 °C.
With `Cc1cc(SCCc2cccc3cn(-c4ccc(C(F)(F)F)cc4)nc23)ccc1OC(C)(C)C(=O)O` [Example 49, 2-Methyl-2-(2-methyl-4-{2-[2-(4-trifluoromethylphenyl)-2H-indazol-7-yl]ethylsulfanyl}phenoxy)propionic Acid] the figure was 141 to 143 °C.
To `CC(C)(Oc1ccc(SCCc2cccc3cn(-c4ccc(C(F)(F)F)cc4)nc23)cc1)C(=O)O` [Example 50, 2-Methyl-2-(4-{2-[2-(4-trifluoromethylphenyl)-2H-indazol-7-yl]ethylsulfanyl}phenoxy)propionic Acid] belongs 112 to 114 °C; to `Cc1cc(OCc2ccc3cn(-c4ccc(C(F)(F)F)cc4)nc3c2)ccc1OC(C)(C)C(=O)O` [Example 51, 2-Methyl-2-{2-methyl-4-[2-(4-trifluoromethylphenyl)-2H-indazol-6-ylmethoxy]phenoxy}propionic Acid], 119 to 121 °C; to `CC(C)(Oc1ccc(OCc2ccc3cn(-c4ccc(C(F)(F)F)cc4)nc3c2)cc1)C(=O)O` [Example 52, 2-Methyl-2-{4-[2-(4-trifluoromethylphenyl)-2H-indazol-6-ylmethoxy]phenoxy}propionic Acid], 199 to 201 °C.
For `Cc1cc(SCc2ccc3cn(-c4ccc(C(F)(F)F)cc4)nc3c2)ccc1OC(C)(C)C(=O)O` [Example 53, 2-Methyl-2-{2-methyl-4-[2-(4-trifluoromethylphenyl)-2H-indazol-6-ylmethylsulfanyl]phenoxy}propionic Acid], the melting point fell in the range of 116 to 118 °C.
With `CC(C)(Oc1ccc(SCc2ccc3cn(-c4ccc(C(F)(F)F)cc4)nc3c2)cc1)C(=O)O` [Example 54, 2-Methyl-2-{4-[2-(4-trifluoromethylphenyl)-2H-indazol-6-ylmethylsulfanyl]phenoxy}propionic Acid] the figure was 176 to 178 °C.
With `CC(C)(Sc1ccc(OCc2ccc3cn(-c4ccc(C(F)(F)F)cc4)nc3c2)cc1)C(=O)O` [Example 55, 2-Methyl-2-{4-[2-(4-trifluoromethylphenyl)-2H-indazol-6-ylmethoxy]phenylsulfanyl}propionic Acid] the figure was 133 to 135 °C.
Regarding `CC(C)(Oc1ccc(COCc2ccc3cn(-c4ccc(C(F)(F)F)cc4)nc3c2)cc1)C(=O)O` [Example 56, 2-Methyl-2-{4-[2-(4-trifluoromethylphenyl)-2H-indazol-6-ylmethoxymethyl]phenoxy}propionic Acid], the melting point lay within 129 to 131 °C.
With `Cc1cc(OCc2ccc3nn(-c4ccc(C(F)(F)F)cc4)cc3c2)ccc1OC(C)(C)C(=O)O` [Example 61, 2-Methyl-2-{2-methyl-4-[2-(4-trifluoromethylphenyl)-2H-indazol-5-ylmethoxy]phenoxy}propionic Acid] the figure was 164 to 166 °C.
With `CC(C)(Sc1ccc(OCc2ccc3nn(-c4ccc(C(F)(F)F)cc4)cc3c2)cc1)C(=O)O` [Example 62, 2-Methyl-2-{4-[2-(4-trifluoromethylphenyl)-2H-indazol-5-ylmethoxy]phenylsulfanyl}propionic Acid] the figure was 192 to 194 °C.
With `CC(C)(Oc1ccc(SCc2ccc3nn(-c4ccc(C(F)(F)F)cc4)cc3c2)cc1)C(=O)O` [Example 63, 2-Methyl-2-{4-[2-(4-trifluoromethylphenyl)-2H-indazol-5-ylmethylsulfanyl]phenoxy}propionic Acid] the figure was 159 to 161 °C; with `Cc1cc(SCc2ccc3nn(-c4ccc(C(F)(F)F)cc4)cc3c2)ccc1OC(C)(C)C(=O)O` [Example 64, 2-Methyl-2-{2-methyl-4-[2-(4-trifluoromethylphenyl)-2H-indazol-5-ylmethylsulfanyl]phenoxy}propionic Acid], 143 to 145 °C; with `CC(C)(Oc1ccc(OCc2ccc3nn(-c4ccc(C(F)(F)F)cc4)cc3c2)cc1)C(=O)O` [Example 65, 2-Methyl-2-{4-[2-(4-trifluoromethylphenyl)-2H-indazol-5-ylmethoxy]phenoxy}propionic Acid], 203 to 205 °C.
The compound `Cc1cc(SCc2cccc3nn(-c4ccc(C(F)(F)F)cc4)cc23)ccc1OC(C)(C)C(=O)O` [Example 71, 2-Methyl-2-{2-methyl-4-[2-(4-trifluoromethylphenyl)-2H-indazol-4-ylmethylsulfanyl]phenoxy}propionic Acid] came in with a melting point of 125 to 127 °C.
With `Cc1cc(OCc2cccc3c2cnn3-c2ccc(C(F)(F)F)cc2)ccc1OC(C)(C)C(=O)O` [Example 77, 2-Methyl-2-{2-methyl-4-[1-(4-trifluoromethylphenyl)-1H-indazol-4-ylmethoxy]phenoxy}propionic Acid] the figure was 100 to 104 °C; with `Cc1cc(SCc2cccc3c2cnn3-c2ccc(C(F)(F)F)cc2)ccc1OC(C)(C)C(=O)O` [Example 78, 2-Methyl-2-{2-methyl-4-[1-(4-trifluoromethylphenyl)-1H-indazol-4-ylmethylsufanyl]phenoxy}propionic Acid], 62 to 66 °C; with `CC(C)(Oc1ccc(SCc2cccc3c2cnn3-c2ccc(C(F)(F)F)cc2)cc1)C(=O)O` [Example 79, 2-Methyl-2-{4-[1-(4-trifluoromethylphenyl)-1H-indazol-4-ylmethylsulfanyl]phenoxy}propionic Acid], 158 to 160 °C.
To `CC(C)(Sc1ccc(OCc2cccc3c2cnn3-c2ccc(C(F)(F)F)cc2)cc1)C(=O)O` [Example 80, 2-Methyl-2-{4-[1-(4-trifluoromethylphenyl)-1H-indazol-4-ylmethoxy]phenylsulfanyl}propionic Acid] belongs 168 to 170 °C; to `CC(C)(Oc1ccc(OCc2cccc3c2cnn3-c2ccc(C(F)(F)F)cc2)cc1)C(=O)O` [Example 81, 2-Methyl-2-{4-[1-(4-trifluoromethylphenyl)-1H-indazol-4-ylmethoxy]phenoxy}propionic Acid], 128 to 130 °C.
With `Cc1cc(OCc2cccc3cnn(-c4ccc(C(F)(F)F)cc4)c23)ccc1OC(C)(C)C(=O)O` [Example 96, 2-Methyl-2-{2-methyl-4-[1-(4-trifluoromethylphenyl)-1H-indazol-7-ylmethoxy]phenoxy}propionic Acid] the figure was 124 to 126 °C; with `CC(C)(Sc1ccc(OCc2cccc3cnn(-c4ccc(C(F)(F)F)cc4)c23)cc1)C(=O)O` [Example 97, 2-Methyl-2-{4-[1-(4-trifluoromethylphenyl)-1H-indazol-7-ylmethoxy]phenylsulfanyl}propionic Acid], 214 to 216 °C; with `Cc1cc(SCc2cccc3cnn(-c4ccc(C(F)(F)F)cc4)c23)ccc1OC(C)(C)C(=O)O` [Example 98, 2-Methyl-2-{2-methyl-4-[1-(4-trifluoromethylphenyl)-1H-indazol-7-ylmethylsulfanyl]phenoxy}propionic Acid], 154 to 158 °C.
In the case of `CC(C)(Oc1ccc(SCc2cccc3cnn(-c4ccc(C(F)(F)F)cc4)c23)cc1)C(=O)O` [Example 99, 2-Methyl-2-{4-[1-(4-trifluoromethylphenyl)-1H-indazol-7-ylmethylsulfanyl]phenoxy}propionic Acid], the melting point lay in the range of 125 to 128 °C.
To `CC(C)(Oc1ccc(OCc2cccc3cnn(-c4ccc(C(F)(F)F)cc4)c23)cc1)C(=O)O` [Example 100, 2-Methyl-1-2-{4-[1-(4-trifluoromethylphenyl)-1H-indazol-7-ylmethoxy]phenoxy}propionic Acid] belongs 146 to 149 °C.
